From patent US20260265238A1, “COMPOUNDS AND PHARMACEUTICAL COMPOSITIONS THAT DEGRADE SWI/SNF-RELATED MATRIX-ASSOCIATED ACTIN-DEPENDENT REGULATOR OF CHROMATIN SUBFAMILY A” (Plexium, Inc., priority 2023, published 2026)

How the values were obtained:
[1] = molecular target: T1, SMARCA2-HiBiT HeLa cells (protein which is expressed from the SMARCA2 gene) (Homo sapiens, UniProt P51531); assay: SMARCA2 degradation assay (HiBiT-fusion HeLa cell line, 24 h, luminescence); format: cell-based
T1 construct: protein which is expressed from the SMARCA2 and SMARCA4 genes; host or cells: HeLa (SMARCA2-HiBiT engineered line)
T1 sequence (P51531 whole entry, the tested form may be a part): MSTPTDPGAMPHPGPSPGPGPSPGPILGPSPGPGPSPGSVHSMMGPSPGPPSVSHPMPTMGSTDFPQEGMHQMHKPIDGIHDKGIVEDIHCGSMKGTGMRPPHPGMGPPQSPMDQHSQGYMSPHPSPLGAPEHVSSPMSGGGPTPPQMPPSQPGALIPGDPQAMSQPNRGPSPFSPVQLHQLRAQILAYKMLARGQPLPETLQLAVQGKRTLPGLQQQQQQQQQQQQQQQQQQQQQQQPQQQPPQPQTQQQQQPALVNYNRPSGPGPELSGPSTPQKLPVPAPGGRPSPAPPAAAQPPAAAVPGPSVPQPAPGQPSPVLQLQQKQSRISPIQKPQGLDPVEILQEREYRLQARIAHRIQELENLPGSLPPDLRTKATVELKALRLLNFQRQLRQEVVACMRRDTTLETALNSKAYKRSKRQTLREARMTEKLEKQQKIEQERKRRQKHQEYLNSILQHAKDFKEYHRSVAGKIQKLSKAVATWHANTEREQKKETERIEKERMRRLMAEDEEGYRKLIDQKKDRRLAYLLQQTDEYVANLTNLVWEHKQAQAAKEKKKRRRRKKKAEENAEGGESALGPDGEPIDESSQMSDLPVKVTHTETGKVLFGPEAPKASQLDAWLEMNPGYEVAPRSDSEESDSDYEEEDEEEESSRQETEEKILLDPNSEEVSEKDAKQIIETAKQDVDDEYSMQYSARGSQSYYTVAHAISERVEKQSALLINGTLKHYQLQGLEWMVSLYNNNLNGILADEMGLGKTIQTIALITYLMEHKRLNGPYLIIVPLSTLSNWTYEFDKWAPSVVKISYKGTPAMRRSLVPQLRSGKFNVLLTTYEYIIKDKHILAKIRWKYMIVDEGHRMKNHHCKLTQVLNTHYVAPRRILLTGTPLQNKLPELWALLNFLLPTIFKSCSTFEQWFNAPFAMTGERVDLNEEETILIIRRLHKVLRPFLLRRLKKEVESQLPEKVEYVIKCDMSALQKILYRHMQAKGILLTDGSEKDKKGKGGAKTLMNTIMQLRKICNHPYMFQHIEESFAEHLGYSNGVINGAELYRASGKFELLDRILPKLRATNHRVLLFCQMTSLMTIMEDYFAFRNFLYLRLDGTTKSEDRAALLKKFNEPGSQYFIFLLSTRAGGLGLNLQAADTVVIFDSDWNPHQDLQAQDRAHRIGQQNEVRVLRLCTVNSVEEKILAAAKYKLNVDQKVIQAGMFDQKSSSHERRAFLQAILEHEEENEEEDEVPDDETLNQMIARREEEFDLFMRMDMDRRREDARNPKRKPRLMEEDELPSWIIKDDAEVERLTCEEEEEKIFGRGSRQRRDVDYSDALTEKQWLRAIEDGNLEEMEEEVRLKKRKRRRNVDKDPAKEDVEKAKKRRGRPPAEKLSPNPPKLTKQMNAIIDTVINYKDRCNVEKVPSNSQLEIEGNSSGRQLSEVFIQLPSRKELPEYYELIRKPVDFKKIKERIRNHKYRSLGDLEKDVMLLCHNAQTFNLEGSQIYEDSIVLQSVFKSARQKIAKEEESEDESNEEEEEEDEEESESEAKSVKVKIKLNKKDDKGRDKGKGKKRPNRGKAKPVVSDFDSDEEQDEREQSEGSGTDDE
Procedure, shortened: (§1)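 HiBiT-fusion HeLa lines, 8,000 cells/well, overnight attachment; cpd 10-pt series (typically 10 μM–300 pM), 24 h, 37° C. Lysis with LgBiT + HiBiT substrate, 10 min shaking at RT, luminescence read. DC50 from dose-response fit; % degradation also scored at 1 μM.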

[2] = molecular target: T2, SMARCA4-HiBiT HeLa cells (protein which is expressed from the SMARCA4 gene) (Homo sapiens, UniProt P51532); assay: SMARCA4 degradation assay (HiBiT-fusion HeLa cell line, 24 h, luminescence); format: cell-based
T2 construct: protein which is expressed from the SMARCA2 and SMARCA4 genes; host or cells: HeLa (SMARCA4-HiBiT engineered line)
T2 sequence (P51532 whole entry, the tested form may be a part): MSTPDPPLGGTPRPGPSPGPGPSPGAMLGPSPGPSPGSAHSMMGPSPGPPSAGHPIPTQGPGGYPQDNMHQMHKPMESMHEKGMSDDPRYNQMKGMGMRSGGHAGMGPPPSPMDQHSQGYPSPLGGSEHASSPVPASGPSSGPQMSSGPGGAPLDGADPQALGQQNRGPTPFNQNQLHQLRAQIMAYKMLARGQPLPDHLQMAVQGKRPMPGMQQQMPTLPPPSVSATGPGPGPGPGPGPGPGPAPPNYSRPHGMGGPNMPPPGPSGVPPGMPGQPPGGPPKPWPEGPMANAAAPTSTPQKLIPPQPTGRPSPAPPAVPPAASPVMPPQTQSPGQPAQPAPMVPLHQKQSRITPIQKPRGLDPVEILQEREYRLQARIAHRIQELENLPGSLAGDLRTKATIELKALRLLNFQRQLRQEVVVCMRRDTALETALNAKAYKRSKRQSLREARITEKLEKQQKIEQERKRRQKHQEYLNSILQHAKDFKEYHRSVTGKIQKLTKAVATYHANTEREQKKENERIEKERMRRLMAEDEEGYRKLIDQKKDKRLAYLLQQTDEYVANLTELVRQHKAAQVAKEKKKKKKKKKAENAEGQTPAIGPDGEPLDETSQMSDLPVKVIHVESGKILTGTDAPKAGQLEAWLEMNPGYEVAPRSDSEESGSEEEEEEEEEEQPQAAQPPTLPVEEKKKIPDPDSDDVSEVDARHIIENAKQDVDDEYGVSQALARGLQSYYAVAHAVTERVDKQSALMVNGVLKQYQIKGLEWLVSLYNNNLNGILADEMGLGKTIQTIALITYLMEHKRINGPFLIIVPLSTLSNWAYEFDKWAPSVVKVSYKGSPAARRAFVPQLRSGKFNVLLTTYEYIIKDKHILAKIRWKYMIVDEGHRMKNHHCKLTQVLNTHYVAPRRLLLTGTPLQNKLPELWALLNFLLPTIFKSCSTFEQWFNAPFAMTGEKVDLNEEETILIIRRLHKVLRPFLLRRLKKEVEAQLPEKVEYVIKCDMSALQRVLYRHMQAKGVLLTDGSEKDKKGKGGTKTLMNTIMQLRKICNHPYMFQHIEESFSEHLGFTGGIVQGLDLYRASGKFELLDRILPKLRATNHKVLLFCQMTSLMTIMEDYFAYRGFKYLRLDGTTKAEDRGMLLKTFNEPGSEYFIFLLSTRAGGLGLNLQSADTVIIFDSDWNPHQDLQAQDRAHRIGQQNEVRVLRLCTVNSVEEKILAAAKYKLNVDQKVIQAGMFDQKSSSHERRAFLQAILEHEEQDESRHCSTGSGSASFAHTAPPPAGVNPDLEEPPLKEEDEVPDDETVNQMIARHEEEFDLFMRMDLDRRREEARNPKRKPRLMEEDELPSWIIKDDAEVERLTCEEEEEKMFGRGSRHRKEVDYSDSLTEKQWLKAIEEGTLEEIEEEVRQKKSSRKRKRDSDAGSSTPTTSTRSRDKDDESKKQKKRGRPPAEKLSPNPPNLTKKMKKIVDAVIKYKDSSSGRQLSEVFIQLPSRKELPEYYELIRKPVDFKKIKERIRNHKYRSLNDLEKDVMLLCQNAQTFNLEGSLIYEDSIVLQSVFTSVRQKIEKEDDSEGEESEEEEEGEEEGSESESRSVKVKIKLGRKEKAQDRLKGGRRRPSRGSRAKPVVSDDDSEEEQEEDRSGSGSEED
Procedure, shortened: as §1

CC1CN(c2ccnc(C#CCNC(=O)c3cc4ncccn4n3)n2)CCCN1c1cc(-c2ccccc2O)nnc1N (stereo not drawn) [Compound P-29, N-(3-(4-(4-(3-amino-6-(2-hydroxyphenyl)pyridazin-4-yl)-3-methyl-1,4-diazepan-1-yl)pyrimidin-2-yl)prop-2-yn-1-yl)pyrazolo[1,5-a]pyrimidine-2-carboxamide]
DC50 [1]: 50 to 500 nM
SMARCA2 % Degradation @ 1 μM ([1]; @ 1 μM): +++ (+++=>70%)
DC50 [2]: 50 to 500 nM
inhibition at 1 µM ([2]; @ 1 μM): > 70%

Nc1nnc(-c2ccccc2O)cc1N1CCC2C1CCCN2c1ccnc(C#CCNC(=O)c2cc3ncccn3n2)n1 (stereo not drawn) [Compound P-38, N-(3-(4-(1-(3-amino-6-(2-hydroxyphenyl)pyridazin-4-yl)octahydro-4H-pyrrolo[3,2-b]pyridin-4-yl)pyrimidin-2-yl)prop-2-yn-1-yl)pyrazolo[1,5-a]pyrimidine-2-carboxamide]
DC50 [1]: 500 to 5000 nM
SMARCA2 % Degradation @ 1 μM ([1]; @ 1 μM): + (+=<30%)
DC50 [2]: 500 to 5000 nM
inhibition at 1 µM ([2]; @ 1 μM): < 30%

Nc1nnc(-c2ccccc2O)cc1N1CCCN(c2ccnc(/C=C/CNC(=O)c3cc4ncccn4n3)n2)CC1 [Compound P-112, (E)-N-(3-(4-(4-(3-amino-6-(2-hydroxyphenyl)pyridazin-4-yl)-1,4-diazepan-1-yl)pyrimidin-2-yl)allyl)pyrazolo[1,5-a]pyrimidine-2-carboxamide]
DC50 [1]: 50 to 500 nM
SMARCA2 % Degradation @ 1 μM ([1]; @ 1 μM): +++ (+++=>70%)
DC50 [2]: 50 to 500 nM
inhibition at 1 µM ([2]; @ 1 μM): > 70%

CC(C)(C)OC(=O)N1CCCC1C#Cc1nccc(N2CCCN(c3cc(-c4ccccc4O)nnc3N)CC2)n1 (stereo not drawn) [Compound P-348, tert-butyl 2-[2-(4-{4-[3-amino-6-(o-hydroxyphenyl)-4-pyridazinyl]-1,4-diazepan-1-y1}-2-pyrimidinyl)ethynyl]-1-pyrrolidinecarboxylate]
DC50 [1]: 50 to 500 nM
SMARCA2 % Degradation @ 1 μM ([1]; @ 1 μM): +++ (+++=>70%)
DC50 [2]: 50 to 500 nM
inhibition at 1 µM ([2]; @ 1 μM): > 70%

Nc1nnc(-c2ccccc2O)cc1N1CCCN(c2ccnc(C#CCN3CCCC3=O)n2)CC1 [Compound P-372, 1-[3-(4-{4-[3-amino-6-(o-hydroxyphenyl)-4-pyridaziny1]-1,4-diazepan-1-y1}-2-pyrimidinyl)-2-propynyl]-2-pyrrolidinone]
DC50 [1]: 50 to 500 nM
SMARCA2 % Degradation @ 1 μM ([1]; @ 1 μM): +++ (+++=>70%)
DC50 [2]: 50 to 500 nM
inhibition at 1 µM ([2]; @ 1 μM): 30 to 70%

C[C@@H]1CCN(c2cc(-c3ccccc3O)nnc2N)CCN1c1ccnc(C#CCN2CCCCC2)c1 [Compound P-425, 0-(5-{(R)-5-methyl-4-[2-(3-piperidino-1-propynyl)-4-pyridyl]-1,4-diazepan-1-yl}-6-amino-3-pyridazinyl)phenol]
DC50 [1]: < 50 nM
SMARCA2 % Degradation @ 1 μM ([1]; 1 μM): ++ (++=30-70%)
DC50 [2]: < 50 nM
inhibition at 1 µM ([2]; 1 μM): 30 to 70%

C[C@@H]1CCN(c2cc(-c3ccccc3O)nnc2N)CCN1c1ccnc(C#CCN2CCC(C#N)C2)n1 (stereo partly drawn) [Compound P-245]
DC50 [1]: 50 to 500 nM
SMARCA2 % Degradation @ 1 μM ([1]; @ 1 μM): +++ (+++=>70%)
DC50 [2]: 50 to 500 nM
inhibition at 1 µM ([2]; @ 1 μM): 30 to 70%

CC(C)(C)OC(=O)NCC#Cc1nccc(N2CCC(Oc3cc(-c4ccccc4O)nnc3N)CC2)n1 [Compound P-296, 4-(1-{2-[3-(tert-butoxycarbonylamino)-1-propynyl]-4-pyrimidinyl}-4-piperidyloxy)-6-(o-hydroxyphenyl)-3-pyridazinamine]
DC50 [1]: 50 to 500 nM
SMARCA2 % Degradation @ 1 μM ([1]; @ 1 μM): ++ (++=30-70%)
DC50 [2]: 50 to 500 nM
inhibition at 1 µM ([2]; @ 1 μM): 30 to 70%

Nc1nnc(-c2ccccc2O)cc1OC1CC2CN(c3ccnc(C#CCN4CCOCC4)n3)CC2C1 (stereo not drawn) [Compound P-220, o-(6-amino-5-{3-[2-(3-morpholino-1-propynyl)-4-pyrimidinyl]-3-azabicyclo[3.3.0]oct-7-yloxy}-3-pyridazinyl)phenol]
DC50 [1]: 50 to 500 nM
SMARCA2 % Degradation @ 1 μM ([1]; @ 1 μM): +++ (+++=>70%)
DC50 [2]: 50 to 500 nM
inhibition at 1 µM ([2]; @ 1 μM): 30 to 70%

C[C@H]1CN(c2cc(-c3ccccc3O)nnc2N)[C@@H](C)CN1c1ccnc(C#CCNC(=O)c2cc3ncccn3n2)n1 [Compound P-343, N-[3-(4-{(2S,5S)-4-[3-amino-6-(0-hydroxyphenyl)-4-pyridaziny1]-2,5-dimethyl-1-piperazinyl}-2-pyrimidinyl)-2-propynyl]-1,4,7a-triaza-2-indenecarboxamide]
DC50 [1]: 50 to 500 nM
SMARCA2 % Degradation @ 1 μM ([1]; @ 1 μM): ++ (++=30-70%)
DC50 [2]: 50 to 500 nM
inhibition at 1 µM ([2]; @ 1 μM): 30 to 70%

Nc1nnc(-c2ccccc2O)cc1N1CCCN(c2ccnc(C#CCNc3ncco3)n2)CC1 [Compound P-15, 2-(6-amino-5-(4-(2-(3-(oxazol-2-ylamino)prop-1-yn-1-yl)pyrimidin-4-yl)-1,4-diazepan-1-yl)pyridazin-3-yl)phenol]
DC50 [1]: 500 to 5000 nM
SMARCA2 % Degradation @ 1 μM ([1]; @ 1 μM): ++ (++=30-70%)
DC50 [2]: 500 to 5000 nM
inhibition at 1 µM ([2]; @ 1 μM): < 30%

Nc1nnc(-c2ccccc2O)cc1N1CCCN(c2ccnc(C#CCN3CCCCC3)n2)CC1 [Compound P-373, 0-(6-amino-5-{4-[2-(3-piperidino-1-propynyl)-4-pyrimidinyl]-1,4-diazepan-1-yl}-3-pyridazinyl)phenol]
DC50 [1]: 50 to 500 nM
SMARCA2 % Degradation @ 1 μM ([1]; @ 1 μM): +++ (+++=>70%)
DC50 [2]: 50 to 500 nM
inhibition at 1 µM ([2]; @ 1 μM): 30 to 70%

NC/C=C/c1nccc(N2CCCN(c3cc(-c4ccccc4O)nnc3N)CC2)n1 [Compound P-113, (E)-2-(6-amino-5-(4-(2-(3-aminoprop-1-en-1-yl)pyrimidin-4-yl)-1,4-diazepan-1-yl)pyridazin-3-yl)phenol]
DC50 [1]: 50 to 500 nM
SMARCA2 % Degradation @ 1 μM ([1]; @ 1 μM): ++ (++=30-70%)
DC50 [2]: 500 to 5000 nM
inhibition at 1 µM ([2]; @ 1 μM): < 30%

C[C@@H]1CCN(c2cc(-c3ccccc3O)nnc2N)CCN1c1ccnc(C#CCOCC2CC(N(C)C)C2)n1 (stereo partly drawn) [Compound P-251, o-{5-[(R)-4-[2-(3-{[3-(dimethylamino)cyclobutyl]methoxy}-1-propynyl)-4-pyrimidinyl]-5-methyl-1,4-diazepan-1-yl]-6-amino-3-pyridazinyl}phenol]
DC50 [1]: 50 to 500 nM
SMARCA2 % Degradation @ 1 μM ([1]; @ 1 μM): +++ (+++=>70%)
DC50 [2]: 50 to 500 nM
inhibition at 1 µM ([2]; @ 1 μM): 30 to 70%

Nc1nnc(-c2ccccc2O)cc1N1CCCN(c2ccnc(C#CCNC(=O)c3cc4ncccn4n3)n2)CC1 [Compound P-76, N-(3-(4-(4-(3-amino-6-(2-hydroxyphenyl)pyridazin-4-yl)-1,4-diazepan-1-yl)pyrimidin-2-yl)prop-2-yn-1-yl)pyrazolo[1,5-a]pyrimidine-2-carboxamide]
DC50 [1]: 50 to 500 nM
SMARCA2 % Degradation @ 1 μM ([1]; @ 1 μM): +++ (+++=>70%)
DC50 [2]: 50 to 500 nM
inhibition at 1 µM ([2]; @ 1 μM): > 70%

C[C@@H]1CN(CC#Cc2nccc(N3CCCN(c4cc(-c5ccccc5O)nnc4N)CC3)n2)C[C@@H](C)O1 [Compound P-356, 0-{5-[4-(2-{3-[(2R,6R)-2,6-dimethyl-4-morpholinyl]-1-propynyl}-4-pyrimidinyl)-1,4-diazepan-1-yl]-6-amino-3-pyridazinyl}phenol]
DC50 [1]: 500 to 5000 nM
SMARCA2 % Degradation @ 1 μM ([1]; @ 1 μM): ++ (++=30-70%)
DC50 [2]: 500 to 5000 nM
inhibition at 1 µM ([2]; @ 1 μM): < 30%

Nc1nnc(-c2ccccc2O)cc1N1CCN(c2ccnc(C#CCNC(=O)c3ccc4ccccc4n3)n2)CC1 [Compound P-64, N-(3-(4-(4-(3-amino-6-(2-hydroxyphenyl)pyridazin-4-yl)piperazin-1-yl)pyrimidin-2-yl)prop-2-yn-1-yl)quinoline-2-carboxamide]
DC50 [1]: 50 to 500 nM
SMARCA2 % Degradation @ 1 μM ([1]; @ 1 μM): ++ (++=30-70%)
DC50 [2]: 50 to 500 nM
inhibition at 1 µM ([2]; @ 1 μM): 30 to 70%

C[C@@H]1CCN(c2cc(-c3ccccc3O)nnc2N)CCN1c1ccnc(C#CCN2[C@H](C)C[C@H]2C)n1 [Compound P-264, o-{5-[(R)-4-(2-{3-[(2R,4R)-2,4-dimethyl-1-azetidinyl]-1-propynyl}-4-pyrimidinyl)-5-methyl-1,4-diazepan-1-yl]-6-amino-3-pyridazinyl}phenol]
DC50 [1]: < 50 nM
SMARCA2 % Degradation @ 1 μM ([1]; @ 1 μM): ++ (++=30-70%)
DC50 [2]: < 50 nM
inhibition at 1 µM ([2]; @ 1 μM): 30 to 70%

C[C@H]1CCN(c2cc(-c3ccccc3O)nnc2N)CCN1c1ccnc(C#CCNC(=O)c2cc3ncccn3n2)n1 [Compound P-102, (S)-N-(3-(4-(4-(3-amino-6-(2-hydroxyphenyl)pyridazin-4-yl)-7-methyl-1,4-diazepan-1-yl)pyrimidin-2-yl)prop-2-yn-1-yl)pyrazolo[1,5-a]pyrimidine-2-carboxamide]
DC50 [1]: 50 to 500 nM
SMARCA2 % Degradation @ 1 μM ([1]; @ 1 μM): +++ (+++=>70%)
DC50 [2]: < 50 nM
inhibition at 1 µM ([2]; @ 1 μM): > 70%

Cc1nccn1CC#Cc1nccc(N2CCN(c3cc(-c4ccccc4O)nnc3N)CC[C@H]2C)n1 [Compound P-186, o-{5-[(R)-5-methyl-4-{2-[3-(2-methyl-1-imidazolyl)-1-propynyl]-4-pyrimidinyl}-1,4-diazepan-1-yl]-6-amino-3-pyridazinyl}phenol]
DC50 [1]: 50 to 500 nM
SMARCA2 % Degradation @ 1 μM ([1]; @ 1 μM): +++ (+++=>70%)
DC50 [2]: 50 to 500 nM
inhibition at 1 µM ([2]; @ 1 μM): 30 to 70%

CC(C)(C)OC(=O)N1CCC(F)(C#Cc2nccc(N3CCCN(c4cc(-c5ccccc5O)nnc4N)CC3)n2)CC1 [Compound P-349]
DC50 [1]: 50 to 500 nM
SMARCA2 % Degradation @ 1 μM ([1]; @ 1 μM): ++ (++=30-70%)
DC50 [2]: 50 to 500 nM
inhibition at 1 µM ([2]; @ 1 μM): 30 to 70%

C[C@@H]1CCN(c2cc(-c3ccccc3O)nnc2N)CCN1c1ccnc(/C=C/CO)n1 [Compound P-168, o-(5-{(R)-4-[2-(3-hydroxy-1-propenyl)-4-pyrimidinyl]-5-methyl-1,4-diazepan-1-y1}-6-amino-3-pyridazinyl)phenol]
DC50 [1]: 50 to 500 nM
SMARCA2 % Degradation @ 1 μM ([1]; @ 1 μM): +++ (+++=>70%)
DC50 [2]: 50 to 500 nM
inhibition at 1 µM ([2]; @ 1 μM): > 70%

COCC#Cc1nc(N2CCN(c3cc(-c4ccccc4O)nnc3N)CC[C@H]2C)ccc1C#N [Compound P-400, 6-{(R)-4-[3-amino-6-(o-hydroxyphenyl)-4-pyridazinyl]-7-methyl-1,4-diazepan-1-yl}-2-(3-methoxy-1-propynyl)nicotinonitrile]
DC50 [1]: 500 to 5000 nM
DC50 [2]: > 5000 nM
